The conditions of the data set: for aqueous solubility: pH 6.8.

Values after ≈ are worked out from the molar mass of the structure shown. Some results are limits rather than exact numbers.

For `Nc1ncnc2c1c(-c1cnc3[nH]ccc3c1)nn2C1CCCC1`, the MDR1-MDCK efflux ratio worked out at 6.9; the fraction unbound, human plasma came out at 0.0729; the fraction unbound, rat plasma worked out at 0.0603; the intrinsic clearance, human liver microsomes is 101 mL/min/kg. Besides, the intrinsic clearance, rat liver microsomes was 1210 mL/min/kg.

What is called aqueous solubility is how much of the substance goes into solution per volume. Read a high aqueous solubility as a readily soluble substance. In the case of `CN(C)c1ccc(-c2ccc(COCc3cccs3)cc2)nn1`, the MDR1-MDCK efflux ratio is 0.483; the intrinsic clearance, human liver microsomes amounted to 76.5 mL/min/kg; the intrinsic clearance, rat liver microsomes was found to be 410 mL/min/kg; the aqueous solubility came out at 1.35 µg/mL (≈ 4.15 µM).

`Cc1cc(-n2ccnc2)ccc1C(=O)O`: the MDR1-MDCK efflux ratio was 0.417; the intrinsic clearance, human liver microsomes is no more than 4.74 mL/min/kg; the intrinsic clearance, rat liver microsomes was no more than 10.7 mL/min/kg.

Regarding `CCN(C(C)=O)c1ccc(C)cc1C(=O)O`, the MDR1-MDCK efflux ratio turned out to be 0.864; the intrinsic clearance, human liver microsomes is no more than 4.74 mL/min/kg; the intrinsic clearance, rat liver microsomes was no more than 10.7 mL/min/kg; the aqueous solubility was 34.9 µg/mL (≈ 158 µM).

For `CSCCc1nc(-c2cc(C)nc3cc(F)ccc23)n(CCO)n1`, the MDR1-MDCK efflux ratio came out at 21.8; the intrinsic clearance, human liver microsomes was 16.9 mL/min/kg; the intrinsic clearance, rat liver microsomes amounted to 147 mL/min/kg; the aqueous solubility is 24 µg/mL (≈ 69.4 µM).

For the molecule `COc1ccnc(N2CC(n3nc(C)cc3C)C2)n1`, the MDR1-MDCK efflux ratio amounted to 0.655; the intrinsic clearance, human liver microsomes is no more than 4.74 mL/min/kg; the intrinsic clearance, rat liver microsomes stood at 44.2 mL/min/kg; the aqueous solubility came to 38 µg/mL (≈ 146 µM).

With `CCn1nccc1CNc1ncccn1`, the MDR1-MDCK efflux ratio came to 0.592; the intrinsic clearance, human liver microsomes is no more than 4.74 mL/min/kg; the intrinsic clearance, rat liver microsomes was no more than 10.7 mL/min/kg.

Turning to `COc1ccc(CN(C)C(=O)C2(C#N)CCC2)cc1`, the aqueous solubility turned out to be 56.6 µg/mL (≈ 219 µM).

On to `Cc1cc(C)nc(NS(=O)(=O)c2ccc(NC(=O)/C=C/c3ccc([N+](=O)[O-])s3)cc2)n1`, for which the intrinsic clearance, human liver microsomes was 14 mL/min/kg and the intrinsic clearance, rat liver microsomes came to 57.3 mL/min/kg.

In the case of `O=C(Cn1c(-c2ccc(F)cc2)nc2ccccc21)N1CCOCC1`, the MDR1-MDCK efflux ratio was 12.8; the intrinsic clearance, human liver microsomes is no more than 4.74 mL/min/kg; the intrinsic clearance, rat liver microsomes was no more than 10.7 mL/min/kg; the aqueous solubility is 54.6 µg/mL (≈ 161 µM).

Consider `N#CCCCN1CCC(c2c[nH]c3ccccc23)CC1`, for which the MDR1-MDCK efflux ratio was 0.46; the intrinsic clearance, human liver microsomes came to 23.8 mL/min/kg; the intrinsic clearance, rat liver microsomes came out at 1730 mL/min/kg; the aqueous solubility is 54.6 µg/mL (≈ 204 µM).

On to `CN1C(=O)N[C@H](Cc2c[nH]c3c(Cl)cccc23)C1=O`, for which the intrinsic clearance, human liver microsomes is 8.58 mL/min/kg and the intrinsic clearance, rat liver microsomes amounted to 77.1 mL/min/kg.

In the case of `Cc1cn2cc(C(=O)N(C)CCO)cc(N[C@@H]3CCOc4cccc(C)c43)c2n1`, the MDR1-MDCK efflux ratio was 73.4; the intrinsic clearance, human liver microsomes was 83.6 mL/min/kg; the intrinsic clearance, rat liver microsomes is 288 mL/min/kg.

In the case of `Cc1cccnc1NC(=O)CCn1cnc2ccccc21`, the MDR1-MDCK efflux ratio was determined as 15.9; the intrinsic clearance, human liver microsomes was no more than 4.74 mL/min/kg; the intrinsic clearance, rat liver microsomes was no more than 10.7 mL/min/kg; the aqueous solubility worked out at 48.1 µg/mL (≈ 172 µM).

On to `N#Cc1cc(F)c(C(=O)Nc2ccnc(NC(=O)[C@H]3C[C@H]3F)c2)c(Cl)c1`, for which the MDR1-MDCK efflux ratio turned out to be 42.6; the intrinsic clearance, human liver microsomes is no more than 4.74 mL/min/kg; the aqueous solubility was 67.5 µg/mL (≈ 179 µM).

`CO[C@H]1CC[C@@H](C(=O)c2ccc3nc4c(cc3c2)CCCO4)CC1`: the MDR1-MDCK efflux ratio was 0.805; the intrinsic clearance, human liver microsomes was 29.4 mL/min/kg; the intrinsic clearance, rat liver microsomes came to 552 mL/min/kg; the aqueous solubility was determined as 44.5 µg/mL (≈ 137 µM).

With `COc1ccc(OCc2n[nH]c(-c3n[nH]c4c3CCC4)n2)cc1`, the MDR1-MDCK efflux ratio is 2.2; the intrinsic clearance, human liver microsomes is 50.9 mL/min/kg; the intrinsic clearance, rat liver microsomes turned out to be 1070 mL/min/kg.

As for `O=C(CCc1ccc2c(c1)OCO2)Nc1nc2c(s1)CCC2`, the MDR1-MDCK efflux ratio came out at 0.236; the intrinsic clearance, human liver microsomes was found to be 97.4 mL/min/kg; the intrinsic clearance, rat liver microsomes is 593 mL/min/kg; the aqueous solubility is 11.6 µg/mL (≈ 36.5 µM).

Source of the values: the Biogen ADME set (Fang et al. 2023).
